Literature values as cited in patent publication US20070185063A1, “Seven-membered ring nucleosides” (Idenix Pharmaceuticals, Inc., priority 2005, published 2007).
Each block holds one compound with its values, some of them ahead of it.

Tests used:
HCV = conditions: ribavirin alone
[1] = test system: human granulocyte-macrophage colony-forming (CFU-GM) activity; conditions: in vitro, bone marrow cells from healthy volunteers; clinically relevant concentrations
[2] = test system: erythroid burst-forming (BFU-E) activity; conditions: in vitro, bone marrow cells from healthy volunteers; clinically relevant concentrations
[3] = in vivo

SMILES: NC(=O)c1ncn([C@@H]2O[C@H](CO)[C@@H](O)[C@H]2O)n1 [Ribavirin, 1-β-D-ribofuranosyl-1-1,2,4-triazole-3-carboxamide]
effect on serum levels of HCV-RNA (HCV): does not lower serum levels of HCV-RNA
patients in whom serum amino transferase levels are reduced to normal (HCV): 40%

concentration that directly inhibits CFU-GM activity [1]: 1 to 2 µM
concentration that directly inhibits BFU-E activity [2]: 1 to 2 µM
SMILES: Cc1cn([C@H]2C[C@H](N=[N+]=[N-])[C@@H](CO)O2)c(=O)[nH]c1=O [ZDV, zidovudine]

SMILES: O=c1[nH]c(=O)n([C@@H]2O[C@H](CO)[C@@H](O)[C@@H]2F)cc1I [fialuridine, 1,-2′-deoxy-2′-fluoro-1-β-D-arabinofuranosyl-5-iodo-uracil]
clinical adverse events due to direct mitochondrial toxicity [3]: caused hepatic failure, pancreatitis, neuropathy, myopathy and lactic acidosis
